According to patent publication US9445594B2, “Molecules having certain pesticidal utilities, intermediates, compositions, and processes, related thereto” (priority 2014, dated 2016):

Legend:
Format in all cases: in vivo
[1] = test system: Beet Armyworm (Spodoptera exigua, LAPHEG) ("BAW"); assay: Bioassays on BAW, 128-well diet tray assay; settings: 168 h, second instar larvae, 50 μg/cm^2 on artificial diet, 25° C., five to seven days, average of eight wells, read-out: BAW % Control (or Mortality) rating
Summary of the method: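 One to five second-instar larvae were placed per well on artificial diet surface-treated with 50 μg/cm^2 compound from 90:10 acetone-water, dried before infestation. Trays were held at 25 °C, 14:10 light-dark, for five to seven days. Percent mortality was averaged over eight wells.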

[2] = test system: Cabbage Looper (Trichoplusia ni, TRIPNI) ("CL"); assay: Bioassays on CL, 128-well diet tray assay; settings: 168 h, second instar larvae, 50 μg/cm^2 on artificial diet, 25° C., five to seven days, average of eight wells, read-out: CL % Control (or Mortality) rating
Summary of the method: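 Second-instar larvae (one to five per well) on artificial diet surface-treated with 50 μg/cm^2 compound in 90:10 acetone-water, eight wells per treatment. Held at 25° C., 14:10 light-dark for five to seven days. Percent mortality scored per well and averaged over the eight wells.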

[3] = test system: Green Peach Aphid (Myzus persicae, MYZUPE) ("GPA"); assay: Bioassays on GPA, foliar spray of infested cabbage seedlings; settings: 72 h, 200 ppm spray on cabbage seedlings, graded after three days, Abbott corrected % control, read-out: GPA % Control (or Mortality) rating
Description: Certain molecules disclosed in this document were tested against GPA using procedures described in the following example. In the reporting of the results, the “GPA Rating Table” was used (See Table Section).
Cabbage seedlings grown in 3-inch pots, with 2-3 small (3-5 cm) true leaves, were used as test substrate. The seedlings were infested with 20-50 GPA (wingless adult and nymph stages) one day prior to chemical application. Four pots with individual seedlings were used for each treatment. Test compounds (2 mg) were dissolved in 2 mL of acetone/methanol (1:1) solvent, forming stock solutions of 1000 ppm test compound. The stock solutions were diluted 5× with 0.025% Tween 20 in water to obtain the solution at 200 ppm test compound. A hand-held aspirator-type sprayer was used for spraying a solution to both sides of […] leaves until runoff. Reference plants (solvent check) were sprayed with the diluent only containing 20% by volume of acetone/methanol (1:1) solvent. Treated plants were held in a holding room for three days at approximately 25° C. and ambient relative humidity (RH) prior to grading. Evaluation was conducted by counting the number of live aphids per plant under a microscope. Percent Control was measured by using Abbott's correction formula (W. S. Abbott, “A Method of Computing the Effectiveness of an Insecticide” J. Econ. Entomol. 18 (1925), pp. 265-267) as follows. Corrected % Control=100*(X−Y)/X • where • X=No. of live aphids on solvent check plants and • Y=No. of live aphids on treated plants

[4] = test system: Yellow Fever Mosquito (Aedes aegypti, AEDSAE) ("YFM"); assay: Bioassays on YFM, 96-well plate larval assay; settings: about 1 day-old larvae, from 4000 ppm DMSO master plate diluted, room temperature, scored after 3 days
Summary of the method: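 Compounds from 4000 ppm DMSO master plates, diluted in 90:10 water:acetone, dispensed into 96-well plates, six replicates. About 1-day-old larvae added in liver-powder water. Wells covered, held 3 days at room temperature, then scored for mortality.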

SMILES: CSc1ccccc1-c1ccccc1NC(=O)Nc1ccc(-c2ncn(-c3ccc(OC(F)(F)F)cc3)n2)cc1 [F60, 1-(2′-(Methylthio)-[1,1′-biphenyl]-2-yl)-3-(4-(1-(4-(trifluoromethoxy)phenyl)-1H-1,2,4-triazol-3-yl)phenyl)urea]
- mortality at 50 µg/cm2 [1]: 50 to 100%
- mortality at 50 µg/cm2 [2]: 50 to 100%
- mortality at 200 ppm [3]: 0 to 80%
- YFM % Control (or Mortality) rating [4]: A (80-100)

SMILES: Cc1ccccc1-c1cccnc1NC(=S)Nc1ccc(-c2ncn(-c3ccc(OC(F)(F)F)cc3)n2)cc1 [F11, 1-(3-(o-Tolyl)pyridin-2-yl)-3-(4-(1-(4-(trifluoromethoxy)phenyl)-1H-1,2,4-triazol-3-yl)phenyl)thiourea]
- mortality at 50 µg/cm2 [1]: 50 to 100%
- mortality at 200 ppm [3]: 0 to 80%
- YFM % Control (or Mortality) rating [4]: D (No activity noticed in this bioassay)

SMILES: CC(C)(C)c1ccccc1NC(=O)Nc1ccc(-c2ncn(-c3ccc(OC(F)(F)F)cc3)n2)cc1 [F38, 1-(2-(Tert-butyl)phenyl)-3-(4-(1-(4-(trifluoromethoxy)phenyl)-1H-1,2,4-triazol-3-yl)phenyl)urea]
- mortality at 50 µg/cm2 [1]: 0 to 50%
- mortality at 50 µg/cm2 [2]: 50 to 100%
- mortality at 200 ppm [3]: 0%
- YFM % Control (or Mortality) rating [4]: D (No activity noticed in this bioassay)

SMILES: O=C(Nc1ccc(-c2ncn(-c3ccc(OC(F)(F)F)cc3)n2)cc1)Nc1ccccc1N1CCOCC1 [F69, 1-(2-Morpholinophenyl)-3-(4-(1-(4-(trifluoromethoxy)phenyl)-1H-1,2,4-triazol-3-yl)phenyl)urea]
- mortality at 50 µg/cm2 [1]: 50 to 100%
- mortality at 50 µg/cm2 [2]: 50 to 100%
- mortality at 200 ppm [3]: 0%
- YFM % Control (or Mortality) rating [4]: A (80-100)

SMILES: CCc1ccccc1-c1cccnc1NC(=S)Nc1ccc(-c2ncn(-c3ccc(OC(F)(F)F)cc3)n2)cc1 [F20, 1-(3-(2-Ethylphenyl)pyridin-2-yl)-3-(4-(1-(4-(trifluoromethoxy)phenyl)-1H-1,2,4-triazol-3-yl)phenyl)thiourea]
- mortality at 50 µg/cm2 [1]: 0 to 50%
- mortality at 50 µg/cm2 [2]: 50 to 100%
- mortality at 200 ppm [3]: 0 to 80%
- YFM % Control (or Mortality) rating [4]: D (No activity noticed in this bioassay)

SMILES: Cc1cc(C)cc(NC(=O)NCCCc2ccc(-c3ncn(-c4ccc(OC(F)(F)F)cc4)n3)cc2)c1 [P1, 1-(3,5-Dimethylphenyl)-3-(3-(4-(1-(4-(trifluoromethoxy)phenyl)-1H-1,2,4-triazol-3-yl)phenyl)propyl)urea]
- mortality at 50 µg/cm2 [1]: 0%
- mortality at 50 µg/cm2 [2]: 0%
- mortality at 200 ppm [3]: 0%
- YFM % Control (or Mortality) rating [4]: D (No activity noticed in this bioassay)

SMILES: CCc1cccc(C)c1NC(=O)NCCCc1ccc(-c2ncn(-c3ccc(OC(F)(F)F)cc3)n2)cc1 [P5, 1-(2-Ethyl-6-methylphenyl)-3-(3-(4-(1-(4-(trifluoromethoxy)phenyl)-1H-1,2,4-triazol-3-yl)phenyl)propyl)urea]
- mortality at 50 µg/cm2 [1]: 0%
- mortality at 50 µg/cm2 [2]: 0%
- mortality at 200 ppm [3]: 0%
- YFM % Control (or Mortality) rating [4]: D (No activity noticed in this bioassay)

SMILES: COc1ccc(NC(=O)NCCCc2ccc(-c3ncn(-c4ccc(OC(F)(F)F)cc4)n3)cc2)c(C)c1 [P3, 1-(4-Methoxy-2-methylphenyl)-3-(3-(4-(1-(4-(trifluoromethoxy)phenyl)-1H-1,2,4-triazol-3-yl)phenyl)propyl)urea]
- mortality at 50 µg/cm2 [1]: 0%
- mortality at 50 µg/cm2 [2]: 0%
- mortality at 200 ppm [3]: 0%
- YFM % Control (or Mortality) rating [4]: D (No activity noticed in this bioassay)

SMILES: O=C(Nc1ccc(-c2ncn(-c3ccc(OC(F)(F)C(F)(F)F)cc3)n2)cc1)Nc1ccccc1-c1ccccc1 [F68, 1-([1,1′-biphenyl]-2-yl)-3-(4-(1-(4-(perfluoroethoxy)phenyl)-1H-1,2,4-triazol-3-yl)phenyl)urea]
- mortality at 50 µg/cm2 [1]: 50 to 100%
- mortality at 50 µg/cm2 [2]: 50 to 100%
- mortality at 200 ppm [3]: 0 to 80%
- YFM % Control (or Mortality) rating [4]: A (80-100)

SMILES: O=C(NCCCc1ccc(-c2ncn(-c3ccc(OC(F)(F)F)cc3)n2)cc1)Nc1cccc(-c2ccccc2)c1 [P7, 1-([1,1′-biphenyl]-3-yl)-3-(3-(4-(1-(4-(trifluoromethoxy)phenyl)-1H-1,2,4-triazol-3-yl)phenyl)propyl)urea]
- mortality at 50 µg/cm2 [1]: 0%
- mortality at 50 µg/cm2 [2]: 0%
- mortality at 200 ppm [3]: 0%
- YFM % Control (or Mortality) rating [4]: D (No activity noticed in this bioassay)

SMILES: CCc1ccccc1NC(=O)Nc1ccc(-c2ncn(-c3ccc(OC(F)(F)F)cc3)n2)cc1 [F46, 1-(2-Ethylphenyl)-3-(4-(1-(4-(trifluoromethoxy)phenyl)-1H-1,2,4-triazol-3-yl)phenyl)urea]
- mortality at 50 µg/cm2 [1]: 50 to 100%
- mortality at 50 µg/cm2 [2]: 50 to 100%
- mortality at 200 ppm [3]: 0 to 80%
- YFM % Control (or Mortality) rating [4]: B (More than 0 - Less than 80)

SMILES: C#Cc1ccccc1NC(=O)Nc1ccc(-c2ncn(-c3ccc(OC(F)(F)F)cc3)n2)cc1 [F5, 1-(2-Ethynylphenyl)-3-(4-(1-(4-(trifluoromethoxy)phenyl)-1H-1,2,4-triazol-3-yl)phenyl)urea]
- mortality at 50 µg/cm2 [1]: 50 to 100%
- mortality at 50 µg/cm2 [2]: 50 to 100%
- mortality at 200 ppm [3]: 0%
- YFM % Control (or Mortality) rating [4]: D (No activity noticed in this bioassay)

SMILES: O=C(NCCCc1ccc(-c2ncn(-c3ccc(OC(F)(F)F)cc3)n2)cc1)Nc1ccccc1-c1ccccc1 [P9, 1-([1,1′-Biphenyl]-2-yl)-3-(3-(4-(1-(4-(trifluoromethoxy)phenyl)-1H-1,2,4-triazol-3-yl)phenyl)propyl)urea]
- mortality at 50 µg/cm2 [1]: 0%
- mortality at 50 µg/cm2 [2]: 50 to 100%
- mortality at 200 ppm [3]: 0%
- YFM % Control (or Mortality) rating [4]: B (More than 0 - Less than 80)

SMILES: Fc1ccc(NC(=S)Nc2ccc(-c3ncn(-c4ccc(OC(F)(F)F)cc4)n3)cc2)cc1 [F72, 1-(4-Fluorophenyl)-3-(4-(1-(4-(trifluoromethoxy)phenyl)-1H-1,2,4-triazol-3-yl)phenyl)thiourea]
- mortality at 50 µg/cm2 [1]: 50 to 100%
- mortality at 200 ppm [3]: 0%
- YFM % Control (or Mortality) rating [4]: B (More than 0 - Less than 80)

SMILES: Cc1ccc(NC(=O)NCCCCc2ccc(-c3ncn(-c4ccc(OC(F)(F)F)cc4)n3)cc2)cc1 [F99, 1-(p-Tolyl)-3-(4-(4-(1-(4-(trifluoromethoxy)phenyl)-1H-1,2,4-triazol-3-yl)phenyl)butyl)urea]
- mortality at 50 µg/cm2 [1]: 0 to 50%
- mortality at 50 µg/cm2 [2]: 0%
- YFM % Control (or Mortality) rating [4]: D (No activity noticed in this bioassay)

SMILES: COc1ccc(NC(=O)NCc2ccc(-c3ncn(-c4ccc(OC(F)(F)F)cc4)n3)cc2)cc1 [F109, 1-(4-Methoxyphenyl)-3-(4-(1-(4-(trifluoromethoxy)phenyl)-1H-1,2,4-triazol-3-yl)benzyl)urea]
- mortality at 50 µg/cm2 [1]: 0%
- mortality at 50 µg/cm2 [2]: 0%
- YFM % Control (or Mortality) rating [4]: D (No activity noticed in this bioassay)

SMILES: C=C(C)c1ccccc1NC(=O)Nc1ccc(-c2ncn(-c3ccc(OC(F)(F)F)cc3)n2)cc1 [F61, 1-(2-(Prop-1-en-2-yl)phenyl)-3-(4-(1-(4-(trifluoromethoxy)phenyl)-1H-1,2,4-triazol-3-yl)phenyl)urea]
- mortality at 50 µg/cm2 [1]: 50 to 100%
- mortality at 50 µg/cm2 [2]: 50 to 100%
- YFM % Control (or Mortality) rating [4]: D (No activity noticed in this bioassay)

SMILES: O=C(Nc1ccc(-c2ncn(-c3ccc(OC(F)(F)F)cc3)n2)cc1)Nc1ccccc1-c1cc(F)c(F)c(F)c1 [F9, 1-(3′,4′,5′-Trifluoro-[1,1′-biphenyl]-2-yl)-3-(4-(1-(4-(trifluoromethoxy)phenyl)-1H-1,2,4-triazol-3-yl)phenyl)urea]
- mortality at 50 µg/cm2 [1]: 50 to 100%
- mortality at 50 µg/cm2 [2]: 50 to 100%
- YFM % Control (or Mortality) rating [4]: D (No activity noticed in this bioassay)

SMILES: Cc1ccccc1NC(=O)NCCCc1ccc(-c2ncn(-c3ccc(OC(F)(F)F)cc3)n2)cc1 [F77, 1-(o-tolyl)-3-(3-(4-(1-(4-(trifluoromethoxy)phenyl)-1H-1,2,4-triazol-3-yl)phenyl)propyl)urea]
- mortality at 50 µg/cm2 [1]: 50 to 100%
- mortality at 50 µg/cm2 [2]: 50 to 100%
- YFM % Control (or Mortality) rating [4]: A (80-100)

SMILES: CC(C)c1ccccc1NC(=O)Nc1ccc(-c2ncn(-c3ccc(OC(F)(F)F)cc3)n2)cc1 [F33, 1-(2-Isopropylphenyl)-3-(4-(1-(4-(trifluoromethoxy)phenyl)-1H-1,2,4-triazol-3-yl)phenyl)urea]
- mortality at 50 µg/cm2 [1]: 50 to 100%
- mortality at 50 µg/cm2 [2]: 50 to 100%
- YFM % Control (or Mortality) rating [4]: B (More than 0 - Less than 80)
